According to patent US8372967B2, “Compounds and methods for modulating expression of GCCR” (Isis Pharmaceuticals, Inc., priority 2006, dated 2013):
Strand notation (5' to 3'): a small letter for the sugar, then the base; units joined by * are phosphorothioate-linked, units joined directly phosphodiester-linked; [ ] holds rarer units or linkages, { } end groups; capitals alone tell only the bases. e = 2'-O-(2-methoxyethyl) (MOE); [5mC] = 5-methylcytosine; d = 2'-deoxy (DNA)

Columns and labels:
[1] = tested on: SGLT2 mRNA; experiment: SGLT2 mRNA in kidney of Balb/c mice, twenty 1-10-1 MOE gapmers, PPS 534 and PPS 553 (Table 74); type: in vivo, mouse; conditions: i.p. 350 nmol/kg twice per week for two weeks
Method: Twenty 1-10-1 MOE gapmers that are complementary to human/monkey/mouse/rat SGLT2 were designed, synthesized and tested in vivo for suppression of SGLT2 mRNA levels in kidney. Data are averages from two experiments in which male 6-week old Balb/c mice were administered intraperitoneal injections of 350 nmol/kg of oligonucleotide, twice per week, over a period of two weeks (a total of four injections). Mice were sacrificed 48 hours following the last administration and evaluated for SGLT2 mRNA levels in kidney. SGLT2 mRNA levels were determined by quantitative real-time PCR analysis according to standard procedures, using two different PCR primer probe sets, primer probe set (PPS) 534 and PPS 553. SGLT2 mRNA levels were normalized to cyclophilin mRNA levels, which were also measured by quantitative real-time PCR.

[2] = tested on: PCSK9 mRNA; experiment: Dose-dependent antisense inhibition of PCSK9 in Hep3B cells, EC50 (Table 76); type: cell-based, human
Method: (§1) When cells reached appropriate confluency, they were treated with oligonucleotide using LIPOFECTIN® as described. […] Cells were treated and data were obtained in duplicate or triplicate. […] Cells were harvested 16-24 hours after oligonucleotide treatment.
Short antisense compounds targeted to a PCSK9 nucleic acid were tested in a dose response experiment Hep3B cells. After the treatment period, RNA was isolated from the cells and PCSK9 mRNA levels were measured by quantitative real-time PCR, as described herein. PCSK9 mRNA levels were normalized to cyclophilin mRNA levels, as measured by real-time PCR using a cyclophilin-specific primer probe set. Results are presented as percent inhibition of PCSK9, relative to untreated control cells. […] As illustrated in the following table, PCSK9 mRNA levels were reduced in a dose-dependent manner.

[3] = tested on: PCSK9 mRNA; type: cell-based, human; conditions: Hep3B cells, 100 nM, relative to untreated control cells; for % Inhib: 0 = no reduction observed
Method: as §1
Prior to quantitative PCR analysis, primer-probe sets specific to the target gene being measured were evaluated for their ability to be “multiplexed” with a GAPDH amplification reaction. After isolation the RNA is subjected to sequential reverse transcriptase (RT) reaction and real-time PCR, both of which are performed in the same well. RT and PCR reagents were obtained from Invitrogen Life Technologies (Carlsbad, Calif.). […] The RT reaction was carried out by incubation for 30 minutes at 48° C. Following a 10 minute incubation at 95° C. to activate the PLATIN 9M® Taq, 40 cycles of a two-step PCR protocol were carried out: 95° C. for 15 seconds (denaturation) followed by 60° C. for 1.5 minutes (annealing/extension).
170 μL of RiboGreen® working reagent (RiboGreen® reagent diluted 1:350 in 10 mM Tris-HCl, 1 mM EDTA, pH 7.5) was pipetted into a 96-well plate containing 30 μL purified cellular RNA. The plate was read in a CytoFluor® 4000 (PE Applied Biosystems) with excitation at 485 nm and emission at 530 nm.
Short antisense compounds targeted to a PCSK9 nucleic acid were tested for their effects on PCSK9 mRNA in vitro. The Isis No, gapmer motif and SEQ ID NO of each short antisense compound are shown again in Table 75. Cultured Hep3B cells were treated with 100 nM of short antisense compound. 5-10-5 MOE gapmers targeted to a PCSK9 nucleic acid were used as positive controls. After the treatment period, RNA was isolated from the cells and PCSK9 mRNA levels were measured by quantitative real-time PCR, as described herein. PCSK9 mRNA levels were adjusted according to total RNA content as measured by RIBOGREEN®. Results are presented in Table 75 as percent inhibition of PCSK9 (% Inhib), relative to untreated control cells.

[4] = primer probe set 534, normalized to cyclophilin
[5] = primer probe set 553, normalized to cyclophilin

Row | Substance | % change in SGLT2 mRNA vs saline [1, 4] [% Saline] | % change in SGLT2 mRNA vs saline [1, 5] [% Saline] | % Inhibition ([2]; 5 nM) [%] | % Inhibition ([2]; 10 nM) [%] | % Inhibition ([2]; 20 nM) [%] | % Inhibition ([2]; 40 nM) [%] | % Inhibition ([2]; 80 nM) [%] | % Inhibition ([2]; 160 nM) [%] | % Inhibition Range [3] | % Inhib [3] [%]
1 | 379703 (eG*d[5mC]*d[5mC]*dG*dG*dA*dG*dA*d[5mC]*dT*dG*eA; antisense) [compound 379703] | −44.2 | −45.9 | – | – | – | – | – | – | – | –
2 | 400307 (antisense e[5mC]*eG*dG*d[5mC]*d[5mC]*dG*d[5mC]*dT*dG*dA*d[5mC]*d[5mC]*eA*e[5mC]) [compound 400307] | – | – | 35 | 39 | 45 | 56 | 92 | 93 | 70-80% | 76
3 | 379700 (e[5mC]*d[5mC]*dA*dG*d[5mC]*dA*dT*dG*dA*dG*dT*e[5mC]; antisense) [compound 379700] | −2.8 | −16.4 | – | – | – | – | – | – | – | –
4 | 379684 (antisense eT*dG*dT*d[5mC]*dA*dG*d[5mC]*dA*dG*dG*dA*eT) [compound 379684] | −45.0 | −43.2 | – | – | – | – | – | – | – | –
5 | 400330 (antisense e[5mC]*e[5mC]*dA*d[5mC]*dG*dT*dG*dG*dG*d[5mC]*dA*dG*e[5mC]*eA) [compound 400330] | – | – | 8 | 32 | 40 | 69 | 82 | 71 | 40-50% | 43
6 | 379686 (antisense eA*d[5mC]*d[5mC]*dA*d[5mC]*dA*dA*dG*d[5mC]*d[5mC]*dA*eA) [compound 379686] | −71.9 | −75.1 | – | – | – | – | – | – | – | –
7 | 400309 (antisense e[5mC]*e[5mC]*d[5mC]*dG*dG*d[5mC]*d[5mC]*dG*d[5mC]*dT*dG*dA*e[5mC]*e[5mC]) [compound 400309] | – | – | 49 | 23 | 38 | 12 | 72 | 78 | 40-50% | 44
8 | 400353 (antisense eA*e[5mC]*dA*d[5mC]*d[5mC]*d[5mC]*dT*d[5mC]*dA*d[5mC]*d[5mC]*d[5mC]*e[5mC]*e[5mC]) [compound 400353] | – | – | 15 | 27 | 23 | 43 | 54 | 48 | 10-20% | 19
9 | 379690 (antisense eA*d[5mC]*dA*dG*dG*dT*dA*dG*dA*dG*dG*e[5mC]) [compound 379690] | −18.9 | −22.5 | – | – | – | – | – | – | – | –
10 | 379701 (e[5mC]*d[5mC]*dA*dT*dG*dG*dT*dG*dA*dA*dG*eA) [compound 379701] | −0.3 | −11.9 | – | – | – | – | – | – | – | –
11 | 379698 (eG*d[5mC]*dA*dG*d[5mC]*d[5mC]*d[5mC]*dA*d[5mC]*d[5mC]*dT*e[5mC]) [compound 379698] | −11.8 | −27.0 | – | – | – | – | – | – | – | –
12 | 379693 (antisense e[5mC]*dA*dT*dG*dG*dT*dG*dA*dT*dG*d[5mC]*e[5mC]) [compound 379693] | −51.6 | −59.9 | – | – | – | – | – | – | – | –
13 | 379702 (eG*d[5mC]*dA*d[5mC]*dA*d[5mC]*dA*dG*d[5mC]*dT*dG*e[5mC]) [compound 379702] | −87.8 | −89.5 | – | – | – | – | – | – | – | –
14 | 400308 (antisense e[5mC]*e[5mC]*dG*dG*d[5mC]*d[5mC]*dG*d[5mC]*dT*dG*dA*d[5mC]*e[5mC]*eA) [compound 400308] | – | – | 31 | 10 | 26 | 40 | 77 | 86 | 50-60% | 55
